The NIST ThermoML archive (doi:10.1016/j.tca.2006.04.011)
Numbers after ± are expanded uncertainties.

What was measured:
[1] = DTA
[2] = Molar enthalpy of transition or fusion; conditions: DSC

| Compound | Triple point temperature ([1]; Crystal 1) [K] | Molar enthalpy of transition or fusion ([2]; Crystal 1) [kcal/mol] | Triple point temperature ([1]; Crystal 2) [K] | Molar enthalpy of transition or fusion ([2]; Crystal 2) [kcal/mol] | Triple point temperature ([1]; Crystal 3) [K] | Molar enthalpy of transition or fusion ([2]; Crystal 3) [kcal/mol] |
| --- | --- | --- | --- | --- | --- | --- |
| Clc1cc(Cl)c2cc(Cl)c(Cl)c(Cl)c2c1 [1,2,3,5,7-pentachloronaphthalene] | 444.85 ± 3.2 | 6.15 ± 0.213 | – | – | – | – |
| Clc1cc2c(Cl)ccc(Cl)c2c(Cl)c1Cl [1,2,3,5,8-pentachloronaphthalene] | 453.25 ± 3.2 | 2.02 ± 0.179 | 443.35 ± 3.2 | 0.22 ± 0.172 | 387.75 ± 3.2 | 3.44 ± 0.189 |
| Clc1cc(Cl)c2c(Cl)c(Cl)cc(Cl)c2c1Cl [1,2,4,5,6,8-hexachloronaphthalene] | 449.35 ± 3.2 | 6.9 ± 0.22 | – | – | – | – |
| Clc1cc(Cl)c2c(Cl)c(Cl)ccc2c1Cl [1,2,4,5,6-pentachloronaphthalene] | 412.65 ± 3.2 | 2.01 ± 0.179 | 404.15 ± 3.2 | 3.74 ± 0.191 | – | – |
| Clc1cc(Cl)c2c(Cl)c(Cl)cc(Cl)c2c1 [1,2,4,6,8-pentachloronaphthalene] | 428.95 ± 3.2 | 4.72 ± 0.198 | – | – | – | – |
| Clc1cc(Cl)c2cc(Cl)cc(Cl)c2c1 [1,3,5,7-tetrachloronaphthalene] | 452.95 ± 3.2 | 6.49 ± 0.215 | – | – | – | – |
| Clc1c(Cl)c(Cl)c2ccccc2c1Cl [naphthalene, 1,2,3,4-tetrachloro-] | 470.75 ± 3.2 | 2.76 ± 0.184 | 454.25 ± 3.2 | 0.318 ± 0.172 | 440.45 ± 3.2 | 2.52 ± 0.182 |

Further lines, with some results ahead:

| Triple point temperature ([1]; Crystal 1) [K] | Molar enthalpy of transition or fusion ([2]; Crystal 1) [kcal/mol] | Triple point temperature ([1]; Crystal 2) [K] | Molar enthalpy of transition or fusion ([2]; Crystal 2) [kcal/mol] | Compound | Triple point temperature ([1]; Crystal 3) [K] | Molar enthalpy of transition or fusion ([2]; Crystal 3) [kcal/mol] |
| --- | --- | --- | --- | --- | --- | --- |
| 455.95 ± 3.2 | 2.09 ± 0.179 | 454.45 ± 3.2 | 2.04 ± 0.179 | Clc1cc2c(Cl)c(Cl)c(Cl)c(Cl)c2c(Cl)c1Cl [naphthalene, 1,2,3,4,5,6,7-heptachloro-] | – | – |
| 416.55 ± 3.2 | 5.48 ± 0.206 | – | – | Clc1cc2cc(Cl)c(Cl)c(Cl)c2cc1Cl [naphthalene, 1,2,3,6,7-pentachloro-] | – | – |
| 381.55 ± 3.2 | 4.19 ± 0.194 | – | – | Clc1cc2ccc(Cl)c(Cl)c2c(Cl)c1Cl [naphthalene, 1,2,3,7,8-pentachloro-] | – | – |
| 354.65 ± 3.2 | 4.41 ± 0.196 | – | – | Clc1cc2ccccc2c(Cl)c1Cl [naphthalene, 1,2,3-trichloro-] | – | – |
| 404.25 ± 3.2 | 5.4 ± 0.206 | – | – | Clc1cc2c(Cl)cc(Cl)c(Cl)c2cc1Cl [naphthalene, 1,2,4,6,7-pentachloro-] | – | – |
| 401.25 ± 3.2 | 3.49 ± 0.189 | – | – | Clc1ccc2ccc(Cl)c(Cl)c2c1Cl [naphthalene, 1,2,7,8-tetrachloro-] | – | – |
